From US11390617B2, “Methods of treating non-Hodgkin lymphoma using 2-(2,6-dioxopiperidin-3-yl)-4-((2-fluoro-4-((3-morpholinoazetidin-1-yl)methyl)benzyl)amino)isoindoline-1,3-dione” (Celgene Corporation, priority 2019, dated 2022)
Blank lines part the entries; values can stand above or below the molecule they belong to.

Columns and labels:
[1] = system: SU-DHL-4 cell line; test: Cell proliferation and viability assay using SU-DHL-4 cell line (Cell Titer-Glo); format: cell-based; conditions: Homo sapiens, SU-DHL-4, 120 hours
Protocol: The following exemplary assay uses a DLBCL cell line, for example, the SU-DHL-4 cell line (Deutsche Sammlung von Mikroorganismen und Zellkulturen GmbH [DSMZ]: catalogue number ACC-495) at 120 hours post-treatment. The seeding density for SU-DHL-4 can be optimized to ensure assay linearity in 1536-well plates.
Increasing concentrations (0.5 nM to […]) of Compounds 1, 2, and 3 were each spotted in a 20-point dilution fashion (unevenly spaced data points) via an acoustic dispenser (EDC ATS-100) into an empty 1536-well plate. The DMSO concentration was kept constant for a final assay concentration of 0.1% DMSO. Prior to testing, SU-DHL-4 cells were grown in RPMI-1640 (Roswell Park Memorial Institute-1640) medium with 10% FBS (fetal bovine serum: HyClone) and expanded in culture flasks to provide sufficient amounts of starting material. Cells were then diluted to 500 cells per well in a 5 μL volume, and added directly to the compound-spotted 1536-well plates. Cells were allowed to grow for 120 hours in 5% CO2 at 37° C. At the time when exposure of cells to compound began (t0), initial viable cell number was assessed via Cell Titer-Glo® Luminescent Cell Viability Assay at a 1 vol: 2 vol ratio according to manufacturer's instructions (Promega Corporation, Madison, Wis.) by quantifying the level of luminescence generated by adenosine-5′-triphosphate (ATP) present in viable cells. After 120 hours, cell viability of the treated cells was assessed via Cell Titer-Glo© and read for luminescence. All growth inhibition curves were processed and evaluated using Activity Base (IDBS, Alameda, Calif.). Cell viability IC50 values were calculated using a four parameter logistic model (sigmoidal dose-response model): y=(A+((B−A)/(1+((C/x)^D)))) wherein: A=YMin B=YMax C=EC50 D=Hill slope IC50=the concentration of the compound when Y=50% of DMSO control Y=cell viability measured as luminescence unit, and x=concentration of compound.

[2] = system: OCI-LY10-Luc CNS DLBCL xenograft; test: OCI-LY10-Luc CNS lymphoma xenograft model (intracranial); format: in vivo, Nude (nu/nu) mice; conditions: 30 mg/kg QD oral, 3 weeks
Protocol: Antitumor activity of Compound 1 was evaluated as a single agent in OCI-LY10-luc diffuse large B-cell lymphoma (DLBCL) xenografted intracranially into nude mice as a model for central nervous system (CNS) lymphoma.
CNS lymphoma study was conducted with OCI-LY-10 cells transfected with luciferase (OCI-LY-10-Luc). Nude (nu/nu) mice were inoculated intracranially into the right cerebral hemisphere of the brain with OCI-LY10-Luc cells. Following inoculation of animals, the tumors were allowed to grow for 5 days. On day 5 following tumor cell inoculation, the mice were imaged using IVIS100 imaging system. The mice having tumors with an average flux ranging between 1×10^7 and 2×10^7 photons/sec were pooled together and randomized into various treatment groups. Compound 1 was formulated in 0.5% Methyl Cellulose, 0.25% Tween 80 and 50 mM Citrate pH 3 (MCT) in water. The animals were orally administered vehicle (MCT) or Compound 1 once daily (QD) for 3 weeks. Doses of Compound 1 ranged between 3 and 30 mg/kg. The positive control pomalidomide (30 mg/kg, QD) formulated in aqueous 0.5% CMC and 0.25% Tween-80 was administered PO. The animals were imaged for bioluminescence once a week using IVIS100 imaging system and monitored for survival. Statistical analysis was performed using a log-rank test between Compound 1-treated and vehicle-treated control groups.

[3] = system: RL follicular lymphoma xenograft tumors; test: RL (follicular lymphoma) xenograft model, alone and in combination with rituximab; format: in vivo, female SCID mice; conditions: rituximab 25 mg/kg intraperitoneally BIW, single agent
Protocol: (§1) Female 6- to 8-weeks-old CB17 SCID mice were obtained from Charles River Laboratories. Mice were housed in a barrier facility in micro-isolator cages at 10 animals per cage. Mice were fed with Harlan-Teklad LM-485 Mouse/Rat Sterilizable Diet and autoclaved water ad libitum and maintained on a 12 hours light-dark cycle. Animals were acclimatized to the animal housing facility for a period of 7 days before the beginning of the experiment. All animal studies were performed under protocols approved by Institutional Animal Care and Use Committees.
(§2) Suspensions of Compound 1 were pared in aqueous 0.5% Methyl Cellulose, 0.25% Tween 80 and 50 mM Citrate pH 3. […]
(§3) Tumor cells were injected subcutaneously in the flank region above the right hind legs of female CB17 SCID mice. […] Tumor volumes were determined before the initiation of treatment and were considered as the starting volumes. Tumors were measured twice a week for the duration of the study. The long and short axes of each tumor were measured using a digital caliper in millimeters. The tumor volumes were calculated using the formula: width^2×length/2. […]
(§4) Xenograft data are expressed as mean±SEM. […]
Xenograft study was conducted with female SCID mice bearing RL follicular lymphoma xenograft tumors. […] Tumors were measured twice a week using calipers and tumor volumes were calculated using the formula of W^2×L/2. […]

[4] = system: WSU-DLCL2 DLBCL xenograft tumors; test: WSU-DLCL2 (DLBCL) xenograft model; format: in vivo, female SCID mice; conditions: rituximab 10 mg/kg intraperitoneally BIW, single agent
Protocol: as §1
Suspensions of Compound 1 were pared in aqueous 0.5% Methyl Cellulose, 0.25% Tween 80 and 50 mM Citrate pH 3. The formulations were homogenized using a Teflon pestle and mortar (Potter-Elvehjem tissue grinder). For multiday studies, the compound was freshly formulated every day. Compound 1 and vehicle were administered by oral gavage. Rituximab was diluted in 0.9% saline and administered intraperitoneally.
Tumor cells were injected subcutaneously in the flank region above the right hind legs of female CB17 SCID mice. When the tumor volumes reach to approximately 200 mm^3, mice bearing tumors of 150-300 mm^3 were randomly assigned to receive oral doses of vehicle, Compound 1, rituximab or combination of Compound 1 (5 days on and 2 days off for 3 weeks) and rituximab (twice a week) for the duration of the study. Tumor volumes were determined before the initiation of treatment and were considered as the starting volumes. Tumors were measured twice a week for the duration of the study. The long and short axes of each tumor were measured using a digital caliper in millimeters. The tumor volumes were calculated using the formula: width^2×length/2. The tumor volumes were expressed in cubic millimeters (mm^3).
Xenograft data are expressed as mean±SEM. Statistical analyses were performed using GraphPad Prism. […]
Xenograft study was conducted with female SCID mice bearing WSU-DLCL2 DLBCL xenograft tumors. […] Tumors were measured twice a week using calipers and tumor volumes were calculated using the formula of W^2×L/2. […]

[5] = system: SUDHL-6 DLBCL xenograft tumors; test: SUDHL-6 (DLBCL) xenograft model; format: in vivo, female SCID mice; conditions: rituximab 10 mg/kg intraperitoneally BIW, single agent
Protocol: as §1, §2, §3, §4
Xenograft study was conducted with female SCID mice bearing SUDHL-6 DLBCL xenograft tumors. […] Tumors were measured twice a week using calipers and tumor volumes were calculated using the formula of W^2×L/2. […]

IC50 [1]: < 200 nM
Molecule: O=C1CC[C@@H](N2C(=O)c3cccc(NCc4ccc(CN5CC(N6CCOCC6)C5)cc4F)c3C2=O)C(=O)N1 [Compound 2, (R)-2-(2,6-dioxopiperidin-3-yl)-4-((2-fluoro-4-((3-morpholinoazetidin-1-yl)methyl)benzyl)amino)isoindoline-1,3-dione]

IC50 [1]: < 200 nM
Molecule: O=C1CCC(N2C(=O)c3cccc(NCc4ccc(CN5CC(N6CCOCC6)C5)cc4F)c3C2=O)C(=O)N1 (stereo not shown) [Compound 3, 2-(2,6-dioxopiperidin-3-yl)-4-((2-fluoro-4-((3-morpholinoazetidin-1-yl)methyl)benzyl)amino)isoindoline-1,3-dione]

Molecule: Nc1cccc2c1C(=O)N(C1CCC(=O)NC1=O)C2=O (stereo not shown) [Pomalidomide, reference compound]
% BLI Inhibition on Day 26 ([2]; relative to vehicle control): 68.8%
Median Survival ([2]; vehicle 35 days): 50 days

Molecule: Rituximab [reference compound]
tumor volume reduction [3]: 56%
tumor volume reduction [4]: 66%
tumor volume reduction [5]: 54%
